# From patent publication US9150617B2, “Immunoregulatory peptides and methods of use” (13 Therapeutics, Inc., priority 2009, dated 2015)
# Ends that are not written are not given here.
# How the values were obtained:
# [1] = tested on: TNF-α secretion from RAW264.7 cells; assay: Inhibition of TNF-α secretion from RAW264.7 cells stimulated with CpG-ODN (ELISA); assay type: cell-based, murine; settings: for activity vis-à-vis P13 (inhibition of TNF-α after stimulation of RAW264.7 cells with CpG): SAR, compared with P13; for Inhibition of TNF-α secretion (percent inhibition): 4 hours (Table 3)
# Procedure: (§1) RAW264.7 (murine monocyte/macrophage cells (American Type Culture Collection) were cultured at 37° C. in a 5% CO2 humidified incubator and grown in DMEM (Invitrogen Life Technologies) supplemented with 10% (v/v) heat-inactivated FCS, 1.5 mM L-glutamine, 100 U/ml penicillin, and 100 μg/ml streptomycin.
# (§2) RAW264.7 cells were plated at 1.5×10^5 cells/well −3×10^5 cells/well in 48-well plates. After 24 hours, the cells were incubated with peptides at various concentrations at room temperature in triplicate either before, simultaneous with, or after activation with various PAMPs for 18 hours. Cell-free supernatants were analyzed for cytokines by ELISA, in quadruplicate. RAW264.7 cells were stimulated with either CpG-ODN (1 μg/ml or 1.25 μg/ml), LPS (about 1 ng/ml), Poly (I:C) (about 10 μg/ml), flagellin (about 5 ng/ml), or zymosan (about 10 μg/ml). Dose response curves were done with each PAMP to determine optimal stimulation concentration. For CpG-ODN stimulation, cells were incubated for 4 hours at 37° C., supernatants collected, and TNF-α measured by ELISA. Any cytokine involved in inflammatory disease mediated toll receptor signaling can be measured using similar assays.
# The effect of several peptides on TNF-α secretion from RAW264.7 cells in response to stimulation by CpG-ODN was studied. Each peptide was initially tested at 3 concentrations, 37 μM, 22.2 μM, and 11.1 μM. […] The peptides were then tested at 11.1 μM, 7.4 μM, and 3.7 μM (Table 3). […] Cell viability was examined for each peptide at the concentrations tested for TNF-α inhibition.
# (§3) Inhibition of TNF-α secretion by various T-peptides was examined. RAW264.7 cells were plated at 3×10^5 cells/well in 48-well plates. After 24 h the cells were incubated with peptide at various concentrations at room temperature in triplicate for 15 minutes and then stimulated with 1.25 ug/ml CpG-ODN or 1 ng/ml LPS. Cells were then incubated for 4 hours at 37° C., supernatants collected, and TNF-α measured by ELISA. Percent inhibition was calculated by comparing TNF-α secretion from cells incubated with peptide to control cells with no peptide treatment. The inhibition by peptides T3, T11, T21, T36, T37, T51 and T52 were compared to inhibition by an analogue of P13 having a sequence of nine arginine residues (SEQ ID NO: 379) at the C-terminus (P13-R^9; SEQ ID NO: 378). (Table 4).
# [2] = tested on: TNF-α secretion from RAW264.7 cells; assay: Inhibition of TNF-α secretion from RAW264.7 cells stimulated with LPS (ELISA); assay type: cell-based, murine; settings: LPS Stimulation, 1 ng/ml LPS
# Procedure: as §1, §2, §3
# mouse middle ear = assay: Effects caused by peptide without added bacteria on mouse middle ear; assay type: in vivo; settings: 10 μM, no bacteria, 3 days
# Procedure: (§4) Induction of otitis media: BALB/c (Bagg albino) mice, about 8-12 weeks of age, are anesthetized with a subcutaneous injection of xylazine & ketamine (about 0.1 mg/30 gm body weight) and their ears examined under the operating microscope to assure they are free of infection or perforation. One group of animals is injected with PBS (Phospho-buffered saline) in one ear and with about 10 μM of a peptide of Table 1 in the opposite ear, to determine the effect of peptide without added bacteria. A second group of animals receive about 5.0 μl of PBS plus heat-inactivated S. pneumoniae (about 10^9 CFU/ml) in one ear and about 5.0 μl of peptide (about 10 μM) plus heat-inactivated S. pneumoniae (about 10^9 CFU/ml) in the opposite ear. Injections are done through the tympanic membrane. Animals are killed about 3 days after bacterial injection and tissue is histologically processed to assess middle ear disease. Inflammation is quantified by measuring 1) area of fluid present in the middle ear; 2) number of cells in middle ear fluid; and 3) thickness of the tympanic membrane (TM) taken at a point away from the injection site. Data are obtained from mice (n=18) injected with PBS alone for each of the histological parameters measured, to serve as a control group.
# To determine the effect of peptide without added bacteria, animals are injected in one ear with PBS alone, and the other ear with about 10 μM peptide. Paired t-tests are done comparing the effect of PBS alone with the effect of peptide for each of the three histological parameters: 1) area of fluid present in the middle ear; 2) number of cells in middle ear fluid; and 3) thickness of the tympanic membrane. […]
# Five mice were injected in one ear with PBS and in the opposite ear with 10 μM peptide P13. Three days later the animals were killed, and the middle ears embedded, sectioned, stained and evaluated for fluid area, infiltrating cell number, and thickness of the tympanic membrane. […]
# [3] = tested on: tympanic membrane of BALB/c mice; assay: Assay for crossing the tympanic membrane by FITC-labeled peptide; assay type: in vivo, mouse; settings: 10 μg/30 μl dropped onto ear with AOM, 10 minutes; fluorescent microscopy of middle ear fluid
# Procedure: Three BALB/c mice at 8-12 weeks of age were anesthetized with ketamine (100 mg/kg) and xylazine (20 mg/kg) prior to administration of bacteria. A ventral midline incision was made in the neck, and the bulla exposed after blunt dissection. The middle ear was inoculated through the bony wall with approximately 3.5 μl of a bacterial suspension (heat inactivated S. pneumoniae 10^10 CFU/ml) with a thin needle. Both the right and left ears received bacteria by bulla injection.
# After 24 hours, animals received an otoscopic exam using an operating microscope. Mice were anesthetized as described above, and the tympanic membrane was inspected for the presence or absence of the following three criteria for acute otitis media (AOM): 1) middle ear effusion behind the tympanic membrane; 2) change in color of the tympanic membrane from clear to red or white (indicating inflammation and/or purulence in the middle ear); 3) change in position of the tympanic membrane from neutral to bulging or retracted.
# Four ears met the criteria for AOM. FITC labeled peptide P13-R^9 (SEQ ID NO: 378) (10 μg/30 μl) was dropped onto the middle ear. The peptide was allowed to absorb for 10 minutes. After 10 minutes, the external ear canal was flushed twice, and blotted to get rid of any remaining peptide. […]
# [4] = tested on: toll-like receptor-dependent signaling; assay: Cytokine secretion in response to TLR activation; assay type: cell-based
# Procedure: as §2
# [5] = tested on: middle ear inflammation in BALB/c mice; assay: Middle ear inflammation, heat-inactivated S. pneumoniae plus peptide injected into the middle ear; assay type: in vivo, mouse; settings: heat-inactivated S. pneumoniae into middle ears of BALB/c mice
# Procedure: as §4, with “Injections are done through the tympanic membrane. Animals are killed about 3 days after bacterial injection and tissue is histologically processed to assess middle ear disease.” left out
# At the end of the experimental treatment, mice are killed and tissues collected for histology. […] This enables all histologic embedding, sectioning, staining, and analysis to be done on the two sides simultaneously to reduce any impact of processing variables on the subsequent quantitative analyses. […]
# [6] = tested on: LPS-induced septic shock in mice; assay: Mouse model of LPS-induced septic shock; assay type: in vivo
# Procedure: BALB/c mice are injected i.p. with PBS, LPS at about 100 μg/mouse/250 μl, or about 100 μg LPS plus various doses of peptides. Serum is collected at about 2 and about 6 hours after treatment and evaluated for the pro-inflammatory cytokines MIP-2 and TNF-α by ELISA, and for soluble ICAM-1.
# [7] = 7.1 μM peptide, CpG stimulation, 1.25 ug/ml CpG-ODN
# [8] = 11.1 μM peptide, CpG stimulation, 1.25 ug/ml CpG-ODN
# [9] = 22 μM peptide, CpG stimulation, 1.25 ug/ml CpG-ODN
# [10] = 11.1 μM peptide, 1 ug/ml CpG-ODN, 4 hours (Table 2)
# [11] = 22.2 μM peptide, 1 ug/ml CpG-ODN, 4 hours
substance,measurement,setting,value
DIIKLTVYDCIRRRRRRRRR [T36-R^9],Percent Inhibition of TNF-α secretion,[1]; [7],50%
same,Percent Inhibition of TNF-α secretion,[1]; [8],70%
same,Percent Inhibition of TNF-α secretion,[1]; [9],82%
same,activity vis-à-vis P13 (inhibition of TNF-α after stimulation of RAW264.7 cells with CpG),[1],superior activity
DIVKVTVYDCIRRRRRRRRR [T37-R^9],Percent Inhibition of TNF-α secretion,[1]; [7],46%
same,Percent Inhibition of TNF-α secretion,[1]; [8],87%
same,Percent Inhibition of TNF-α secretion,[1]; [9],93%
same,activity vis-à-vis P13 (inhibition of TNF-α after stimulation of RAW264.7 cells with CpG),[1],superior activity
AIVKLTVYDCIRRRRRRRRR [T3-R^9],Percent Inhibition of TNF-α secretion,[1]; [7],85%
same,Percent Inhibition of TNF-α secretion,[1]; [8],92%
same,Percent Inhibition of TNF-α secretion,[1]; [9],99%
same,activity vis-à-vis P13 (inhibition of TNF-α after stimulation of RAW264.7 cells with CpG),[1],superior activity
same,Percent Inhibition of TNF-α secretion,[2]; 7.4 uM peptide,33%
same,Percent Inhibition of TNF-α secretion,[2]; 11.1 uM peptide,65%
same,Percent Inhibition of TNF-α secretion,[2]; 22.2 uM peptide,77%
"DIVKLTVYDCI [Peptide P13, DIVKLTVYDCI]",difference between PBS-injected ear and P13-injected ear in cell number,mouse middle ear,no differences
same,difference between PBS-injected ear and P13-injected ear in fluid area,mouse middle ear,no differences
same,difference between PBS-injected ear and P13-injected ear in tympanic membrane thickness,mouse middle ear,no differences
LLEEYFMYGLLGLRIRRRRRRRRR [Peptide 106 (S22)-R^9],Inhibition of TNF-α secretion (percent inhibition),"[1]; 7 μM peptide, 1 ug/ml CpG-ODN",53%
same,Inhibition of TNF-α secretion (percent inhibition),"[1]; 11 μM peptide, 1 ug/ml CpG-ODN",70%
same,Percent Inhibition of TNF-α secretion,[1]; [10],70%
same,Percent Inhibition of TNF-α secretion,[1]; [11],92%
FTILLEEYFMYRGLLGLRIRRRRRRRRR [Peptide 103 (S19)-R^9],Inhibition of TNF-α secretion (percent inhibition),"[1]; 7 μM peptide, 1 ug/ml CpG-ODN",87%
same,Inhibition of TNF-α secretion (percent inhibition),"[1]; 11 μM peptide, 1 ug/ml CpG-ODN",93%
same,Percent Inhibition of TNF-α secretion,[1]; [10],93%
same,Percent Inhibition of TNF-α secretion,[1]; [11],99%
DIVKLYVYDCIRRRRRRRRR [T21-R^9],Percent Inhibition of TNF-α secretion,[1]; [7],69%
same,Percent Inhibition of TNF-α secretion,[1]; [8],90%
same,Percent Inhibition of TNF-α secretion,[1]; [9],98%
same,activity vis-à-vis P13 (inhibition of TNF-α after stimulation of RAW264.7 cells with CpG),[1],superior activity
AIIKVYVYACIRRRRRRRRR [T52-R^9],Percent Inhibition of TNF-α secretion,[1]; [7],97.8%
same,Percent Inhibition of TNF-α secretion,[1]; [8],99.2%
same,Percent Inhibition of TNF-α secretion,[1]; [9],100%
same,activity vis-à-vis P13 (inhibition of TNF-α after stimulation of RAW264.7 cells with CpG),[1],superior activity
FITC-labeled P13-R^9: FITC (Fluorescein isothiocyanate) labeled peptide P13-R^9 (SEQ ID NO: 378) (DIVKLTVYDCIRRRRRRRRR; also: FITC label),crossing the tympanic membrane,[3],crosses the tympanic membrane and associates with cells in middle ear fluid
ILLEEYFMYRGLLGLRIRRRRRRRRR [Peptide 105 (S21)-R^9],Inhibition of TNF-α secretion (percent inhibition),"[1]; 7 μM peptide, 1 ug/ml CpG-ODN",52%
same,Inhibition of TNF-α secretion (percent inhibition),"[1]; 11 μM peptide, 1 ug/ml CpG-ODN",62%
same,Percent Inhibition of TNF-α secretion,[1]; [10],62%
same,Percent Inhibition of TNF-α secretion,[1]; [11],91%
AIVKLTVYACIRRRRRRRRR [T51-R^9],Percent Inhibition of TNF-α secretion,[1]; [7],94%
same,Percent Inhibition of TNF-α secretion,[1]; [8],98%
same,Percent Inhibition of TNF-α secretion,[1]; [9],99.7%
same,activity vis-à-vis P13 (inhibition of TNF-α after stimulation of RAW264.7 cells with CpG),[1],superior activity
TILLEEYFMYRGLLGLRIRRRRRRRRR [Peptide 104 (S20)-R^9],Inhibition of TNF-α secretion (percent inhibition),"[1]; 7 μM peptide, 1 ug/ml CpG-ODN",60%
same,Inhibition of TNF-α secretion (percent inhibition),"[1]; 11 μM peptide, 1 ug/ml CpG-ODN",74%
same,Percent Inhibition of TNF-α secretion,[1]; [10],74%
same,Percent Inhibition of TNF-α secretion,[1]; [11],93%
DIVKLTVYACIRRRRRRRRR [T11-R^9],activity vis-à-vis P13 (inhibition of TNF-α after stimulation of RAW264.7 cells with CpG),[1],superior activity
same,Percent Inhibition of TNF-α secretion,[2]; 7.4 uM peptide,68%
same,Percent Inhibition of TNF-α secretion,[2]; 11.1 uM peptide,81%
same,Percent Inhibition of TNF-α secretion,[2]; 22.2 uM peptide,91%
DIVKLTVYDCIRRRRRRRRR [P13-R^9],cytokine secretion in response to TLR activation,[4],effectively inhibits
same,Percent Inhibition of TNF-α secretion,[1]; [7],32%
same,Percent Inhibition of TNF-α secretion,[1]; [8],65%
same,Percent Inhibition of TNF-α secretion,[1]; [9],86%
same,bacterial-induced inflammatory response in the middle ear,[5],dramatically reduced
same,pro-inflammatory mediators,[6],reduce pro-inflammatory mediators
same,Percent Inhibition of TNF-α secretion,[2]; 7.4 uM peptide,0%
same,Percent Inhibition of TNF-α secretion,[2]; 11.1 uM peptide,13%
same,Percent Inhibition of TNF-α secretion,[2]; 22.2 uM peptide,69%
